Assay results published in article PMC3726599, “A Metabolically-Stabilized Phosphonate Analog of Lysophosphatidic Acid Attenuates Collagen-Induced Arthritis” (PLoS ONE, 2013).

How the values were obtained:
recombinant ATX [1] = biological target: T1, recombinant ATX (Homo sapiens, UniProt Q13822); assay: Amplex Red activity assay, LPC hydrolysis by recombinant ATX (Echelon); format: biochemical; conditions: for % Inhibition at 10 μΜ: BrP-LPA 10 μΜ; for Ki: Cheng-Prusoff from IC50; for IC50: [S] 50 μΜ, Echelon ATX 2 nM, mean±std
T1 construct: purchased SinoBiological Inc (main data); R&D (additional Km values)
Method: BrP-LPA inhibition was also tested with the more sensitive reagent Amplex Red based on the Amplex™ Red PLD assay kit (Molecular Probes, Interchim, Montluçon, France) originally designed for the measurement of the PLD activity, [49]. All reactions were performed with purified ATX (2 nM) from Echelon at 37°C. The ability of ATX to cleave LPC was detected using a coupled assay that monitors the release of choline using Amplex Red (10 μΜ), choline oxidase (0.2 Units/ml) and horseradish peroxidise (2 Units/ml) The rate of fluorescence increase was measured in a fluorescence plate reader (Tecan Infinite 200 microplate reader from Tecan Trading AG, Switzerland) for up to 80 minutes; the fluorescence increase was linear during that time-frame for all cases. Rates were normalized to control reactions that contained all reaction components except for the test compound.
(§1) The biochemistry of lyso-PLD was assessed by following the kinetics data using a wide panel of different ATX substrates [FS-3, different LPC species (14:0, 16:0, 18:0, 18:1)], three different recombinant ATX proteins (R&D, Sino-Biological and Echelon) and three different ATX activity assays (FS-3, TOOS, Amplex Red). The ATX activity was measured at different substrate concentrations (typically from 1-1000 μM) in order to examine whether ATX follows Michaelis-Menten kinetics. The Michaelis constant (Km) was obtained by fitting the substrate dependence of V (ATX activity) to a rectangular hyperbola using the non-linear regression analysis of the statistical software package Prism 4.0 (GraphPad Software, Inc.). Km and Vmax were evaluated from the rectangular hyperbola curve with the use of GraphPad software.
For in vitro inhibition measurements, BrP-LPA was dissolved in water as a stock solution (4 mM) and appropriate dilutions were made in water. The inhibition of ATX by BrP-LPA was measured employing 2 nM recombinant ATX, 50 μΜ LPC (14:0, 16:0, 18:0) and 0.01 to 100 μmol/L of BrP-LPA (final concentrations). The in vitro inhibition of ATX by BrP-LPA was evaluated with three different assays (FS-3, Amplex Red, and TOOS). […] BrP-LPA was also tested for its ability to inhibit mouse plasma ATX activity. Diluted mouse plasma was used as the source of ATX and the analysis of inhibition was made with TOOS as the in vitro inhibition assay.
The inhibition model (competitive, noncompetitive, or mixed type inhibition) was evaluated by graphical analysis with Lineweaver–Burk double reciprocal plots (1/[velocity] versus 1/[substrate]) and Cornish-Bowden plot ([substrate]/[velocity] versus [Inhibitor]). These plots were generated by the measurement of ATX activity in the presence of different BrP-LPA concentrations (0–10 μΜ) and increased amounts of 16:0 LPC (100, 200, 400 μΜ). The inhibition constants (Ki) and IC50 values were determined using the mean values obtained from two independent experiments. The relative remaining ATX activity or LPA levels in the presence of the BrP-LPA was expressed as a percentage of the corresponding control value (ATX activity, LPA levels without inhibitor). The IC50 value was determined graphically by plotting the log concentration of BrP-LPA versus relative remaining ATX activity or LPA levels of each test sample using the sigmoid dose–response fitting method (Prism® software). The IC50 (concentration of BrP-LPA sufficient to inhibit ATX activity or diminish LPA levels by 50%) was calculated by the equation f = y0+a/(1+exp(-(x-x0)/b)) given by SigmaPlot 11.0 (Systat Software, Inc., San Jose, CA, USA).
Ki was calculated using the equation of Cheng and Prusoff: Ki = IC50/1+[S]/Km, where Ki is the binding affinity of the inhibitor, IC50 is the functional strength of the inhibitor, [S] is substrate concentration and Km is the concentration of substrate at which enzyme activity is half maximal. Whereas the IC50 value for a compound may vary between experiments depending on experimental conditions, Ki is an absolute value. […]

recombinant ATX [2] = biological target: T1, recombinant ATX; assay: FS-3 ATX activity assay; format: biochemical
Method: Inhibition of ATX activity by BrP-LPA was determined using the cleavage of the ATX-specific fluorogenic substrate FS-3 (Echelon Biosciences, UT, USA). Assays were conducted in a final volume of 100 μl in the presence of 140 mM NaCl, 5 mM KCl, 1 mM MgCl2 and 50 mM Tris, pH 8.0 with the use of 1 µM FS-3, 2 nM ATX from Echelon and increasing concentrations of BrP-LPA. Reactions were brought up to 100 µl with ddH2O and were then incubated at 37°C in a Tecan Infinite 200 microplate reader (Tecan Trading AG, Switzerland) set to make fluorescence measurements every 1 min for a total period of 30 min. Autotaxin activity was quantified by measuring the rate of increase in fluorescence at 528 nm with excitation at 485 nm. At the end of the measurement, each data point was plotted on a graph of fluorescence versus time. A linear regression was fitted in the linear portion of the graph (3–20 min).
as §1, with “The Michaelis constant (Km) was obtained by fitting the substrate dependence of V (ATX activity) to a rectangular hyperbola using the non-linear regression analysis of the statistical software package Prism 4.0 (GraphPad Software, Inc.).” left out
For in vitro inhibition measurements, BrP-LPA was dissolved in water as a stock solution (4 mM) and appropriate dilutions were made in water. […] The in vitro inhibition of ATX by BrP-LPA was evaluated with three different assays (FS-3, Amplex Red, and TOOS). […]
The inhibition model (competitive, noncompetitive, or mixed type inhibition) was evaluated by graphical analysis with Lineweaver–Burk double reciprocal plots (1/[velocity] versus 1/[substrate]) and Cornish-Bowden plot ([substrate]/[velocity] versus [Inhibitor]). […]

LPA3 = conditions: Ca++ mobilization, RH7777 cells; kind of constant not given; read-out: inhibition of LPA3; cited from earlier work
MDA-MB-231 = tested on: MDA-MB-231; set-up: method as in PMID 19509223; conditions: MDA-MB-231, in vitro; cited from earlier work

For `CCCCCCCCCCCCCCCC(=O)OC[C@@H](O)CC(Br)P(=O)(O)O` (stereo partly drawn) [BrP-LPA, 1-bromo-3(S)-hydroxy-4-(palmitoyloxy)butyl-phosphonate], the “% Inhibition at 10 μΜ” value (recombinant ATX [1]; 14:0 LPC 50 μΜ) was 75%, the Ki (recombinant ATX [1]; 14:0 LPC) was 1000 ± 400 nM and the “% Inhibition at 10 μΜ” value (recombinant ATX [1]; 18:0 LPC 50 μΜ) was 75%. The Ki (recombinant ATX [1]; 18:0 LPC) was 800 ± 200 nM, the IC50 (recombinant ATX [1]; substrate 14:0 LPC) was 1600 ± 100 nM and the IC50 (recombinant ATX [1]; substrate 18:0 LPC) was 1100 ± 100 nM. For the same compound, the “% Inhibition at 10 μΜ” value (recombinant ATX [2]; FS-3 1 μΜ, BrP-LPA 10 μΜ) was 95%, the IC50 (recombinant ATX [2]; FS-3 assay, [S] 1 μΜ FS-3, Echelon ATX 2 nM, mean±std) was 400 ± 30 nM and the Ki (recombinant ATX [2]; FS-3 substrate, Cheng-Prusoff from IC50) was 300 ± 100 nM. The IC50 (LPA3) was 1200 nM and the “breast cancer cell migration” value (MDA-MB-231) was “reduce breast cancer cell (MDA-MB-231) migration in vitro”.
